Measurements taken from the supplement of paper PMC6045584.
± gives the standard deviation of the averaged measurements.

Tests used:
EVEROLIMUS = compound: CO[C@H]1C[C@@H]2CC[C@@H](C)[C@@](O)(O2)C(=O)C(=O)N2CCCC[C@H]2C(=O)O[C@H]([C@H](C)C[C@@H]2CC[C@@H](OCCO)[C@H](OC)C2)CC(=O)[C@H](C)/C=C(\C)[C@@H](O)[C@@H](OC)C(=O)[C@H](C)C[C@H](C)/C=C/C=C/C=C/1C [EVEROLIMUS]; assay: surviving fraction relative to DMSO-only wells; higher = less growth inhibition; settings: exposure time: 5 days
Procedure, shortened: (§1)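 At 250–500 cells per well in 384-well plates, log-phase tumour cell lines were seeded and, 24 hours on, exposed continuously for five days to inhibitors at 0.5, 1, 5, 10, 50, 100, 500 and 1000 nM. Viability readout was CellTiter-Glo luminescence, reported as surviving fraction normalised to the median of DMSO-only wells.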

[1] = compound: O=C(NOCC1CC1)c1ccc(F)c(F)c1Nc1ccc(I)cc1Cl; assay: as above; settings: exposure time: 5 days
Procedure, shortened: as §1

Row | Test System | surviving fraction (EVEROLIMUS; 0.5 nM) | surviving fraction (EVEROLIMUS; 1 nM) | surviving fraction (EVEROLIMUS; 5 nM) | surviving fraction (EVEROLIMUS; 10 nM) | surviving fraction (EVEROLIMUS; 50 nM) | surviving fraction (EVEROLIMUS; 100 nM) | surviving fraction (EVEROLIMUS; 500 nM) | surviving fraction (EVEROLIMUS; 1000 nM) | surviving fraction ([1]; 0.5 nM) | surviving fraction ([1]; 1 nM) | surviving fraction ([1]; 5 nM) | surviving fraction ([1]; 10 nM) | surviving fraction ([1]; 50 nM) | surviving fraction ([1]; 100 nM) | surviving fraction ([1]; 500 nM) | surviving fraction ([1]; 1000 nM)
1 | HCC38 BREAST | 1.17 ± 0.022 | 1.01 ± 0.065 | 0.897 ± 0.11 | 0.925 ± 0.069 | 0.795 ± 0.08 | 0.888 ± 0.033 | 0.733 ± 0.024 | 0.852 ± 0.027 | 1.14 ± 0.17 | 1.11 ± 0.19 | 1.01 ± 0.11 | 1.14 ± 0.093 | 0.998 ± 0.2 | 1.03 ± 0.22 | 1.21 ± 0.29 | 1.07 ± 0.14
2 | HCC70 BREAST | 0.866 ± 0.073 | 0.749 ± 0.059 | 0.606 ± 0.017 | 0.536 ± 0.024 | 0.536 ± 0.052 | 0.543 ± 0.019 | 0.44 ± 0.054 | 0.429 ± 0.01 | 0.939 ± 0.029 | 0.963 ± 0.03 | 1.02 ± 0.049 | 0.956 ± 0.058 | 0.818 ± 0.041 | 0.773 ± 0.052 | 0.601 ± 0.022 | 0.528 ± 0.033
3 | HCC78 LUNG | 0.516 ± 0.13 | 0.674 ± 0.26 | 0.528 ± 0.11 | 0.627 ± 0.11 | 0.621 ± 0.1 | 0.599 ± 0.18 | 0.358 ± 0.052 | 0.327 ± 0.055 | 0.787 ± 0.12 | 0.836 ± 0.085 | 0.841 ± 0.11 | 0.832 ± 0.25 | 0.898 ± 0.17 | 0.885 ± 0.15 | 0.486 ± 0.058 | 0.632 ± 0.097
4 | HCC202 BREAST | 1 ± 0.083 | 0.79 ± 0.055 | 0.548 ± 0.15 | 0.578 ± 0.13 | 0.383 ± 0.093 | 0.471 ± 0.1 | 0.44 ± 0.054 | 0.385 ± 0.14 | 1.38 ± 0.41 | 1.49 ± 0.64 | 1.47 ± 0.2 | 1.28 ± 0.26 | 1.46 ± 0.16 | 1.31 ± 0.099 | 1.37 ± 0.38 | 1.57 ± 0.043
5 | HCC1395 BREAST | 1.18 ± 0.041 | 1.08 ± 0.03 | 1.19 ± 0.025 | 0.998 ± 0.05 | 1.02 ± 0.099 | 1 ± 0.041 | 0.974 ± 0.026 | 0.951 ± 0.056 | 0.997 ± 0.2 | 0.963 ± 0.14 | 0.951 ± 0.17 | 0.958 ± 0.2 | 0.838 ± 0.14 | 0.96 ± 0.052 | 0.86 ± 0.075 | 0.979 ± 0.042
6 | HCC1806 BREAST | 0.918 ± 0.13 | 0.911 ± 0.043 | 0.888 ± 0.085 | 0.851 ± 0.051 | 0.784 ± 0.095 | 0.859 ± 0.083 | 0.669 ± 0.11 | 0.74 ± 0.12 | 1.04 ± 0.026 | 1.01 ± 0.098 | 1.09 ± 0.16 | 1.12 ± 0.079 | 1.1 ± 0.058 | 1.17 ± 0.048 | 0.761 ± 0.094 | 0.671 ± 0.022
7 | HCC1954 BREAST | 0.4 ± 0.05 | 0.376 ± 0.082 | 0.399 ± 0.074 | 0.428 ± 0.08 | 0.321 ± 0.014 | 0.308 ± 0.016 | 0.249 ± 0.039 | 0.275 ± 0.037 | 0.986 ± 0.081 | 1.13 ± 0.023 | 1.12 ± 0.027 | 1.05 ± 0.066 | 0.8718 ± 0.0032 | 0.805 ± 0.081 | 0.617 ± 0.041 | 0.566 ± 0.067
8 | HCT15 LARGE INTESTINE | 0.803 ± 0.066 | 0.702 ± 0.066 | 0.599 ± 0.07 | 0.511 ± 0.013 | 0.512 ± 0.055 | 0.511 ± 0.059 | 0.476 ± 0.046 | 0.542 ± 0.037 | 0.526 ± 0.042 | 0.912 ± 0.023 | 0.849 ± 0.05 | 0.936 ± 0.066 | 0.608 ± 0.037 | 0.914 ± 0.039 | 0.784 ± 0.0076 | 0.823 ± 0.05
9 | HELA CERVIX | 1.04 ± 0.027 | 1.04 ± 0.014 | 1.04 ± 0.029 | 1.036 ± 0.0052 | 1.15 ± 0.023 | 1.14 ± 0.058 | 1.09 ± 0.036 | 1.16 ± 0.055 | 0.961 ± 0.057 | 1.01 ± 0.09 | 0.97 ± 0.07 | 0.964 ± 0.08 | 1.02 ± 0.012 | 1.08 ± 0.055 | 1.09 ± 0.077 | 1.12 ± 0.025
10 | HMLE3 BREAST | 1.02 ± 0.065 | 0.956 ± 0.02 | 0.813 ± 0.036 | 0.682 ± 0.016 | 0.455 ± 0.063 | 0.402 ± 0.036 | 0.322 ± 0.044 | 0.306 ± 0.019 | 0.845 ± 0.061 | 0.91 ± 0.028 | 0.922 ± 0.053 | 0.862 ± 0.017 | 0.733 ± 0.032 | 0.745 ± 0.048 | 0.525 ± 0.03 | 0.612 ± 0.001
11 | HMT3552 BREAST | 0.742 ± 0.097 | 0.6117 ± 0.0057 | 0.591 ± 0.021 | 0.598 ± 0.032 | 0.649 ± 0.016 | 0.616 ± 0.049 | 0.545 ± 0.05 | 0.549 ± 0.067 | 1.11 | 1.12 | 1.01 | 1.08 | 1.02 | 0.941 | 0.92 | 0.843
12 | HOS BONE | 0.885 ± 0.015 | 0.861 ± 0.0096 | 0.804 ± 0.018 | 0.742 ± 0.021 | 0.763 ± 0.011 | 0.766 ± 0.012 | 0.711 ± 0.033 | 0.721 ± 0.0092 | 0.996 ± 0.015 | 1.01 ± 0.025 | 0.997 ± 0.014 | 1.01 ± 0.033 | 0.9843 ± 0.006 | 0.998 ± 0.018 | 0.951 ± 0.02 | 0.9593 ± 0.0051
13 | HOSMNG BONE | 1.03 ± 0.013 | 0.95 ± 0.051 | 0.951 ± 0.11 | 0.979 ± 0.07 | 1 ± 0.07 | 1.05 ± 0.1 | 0.999 ± 0.085 | 1.03 ± 0.027 | 1 ± 0.092 | 0.992 ± 0.059 | 0.999 ± 0.082 | 1.01 ± 0.027 | 0.992 ± 0.12 | 1.02 ± 0.084 | 0.991 ± 0.1 | 1.06 ± 0.03
14 | HS578T BREAST | 0.6 ± 0.095 | 0.598 ± 0.019 | 0.527 ± 0.047 | 0.524 ± 0.042 | 0.563 ± 0.08 | 0.545 ± 0.048 | 0.471 ± 0.044 | 0.468 ± 0.017 | 0.899 ± 0.029 | 0.913 ± 0.041 | 0.917 ± 0.076 | 1.09 ± 0.08 | 1.05 ± 0.08 | 0.892 ± 0.042 | 0.944 ± 0.041 | 0.936 ± 0.041
15 | HSSYII SYNOVIAL | 0.781 ± 0.043 | 0.711 ± 0.066 | 0.616 ± 0.018 | 0.566 ± 0.025 | 0.476 ± 0.011 | 0.462 ± 0.025 | 0.416 ± 0.051 | 0.3632 ± 0.0025 | 0.526 ± 0.017 | 0.847 ± 0.035 | 0.872 ± 0.041 | 0.928 ± 0.074 | 0.663 ± 0.059 | 0.807 ± 0.058 | 0.82 ± 0.038 | 0.821 ± 0.022
16 | HT1080 SOFT TISSUE | 1.04 ± 0.029 | 0.991 ± 0.013 | 0.733 ± 0.039 | 0.577 ± 0.045 | 0.496 ± 0.019 | 0.48 ± 0.029 | 0.477 ± 0.036 | 0.477 ± 0.036 | 1.009 ± 0.0071 | 1.016 ± 0.01 | 1.01 ± 0.028 | 1.03 ± 0.029 | 1.08 ± 0.025 | 1.04 ± 0.039 | 0.741 ± 0.0079 | 0.617 ± 0.036
